Values quoted from earlier work in patent publication US20030003013A1, “Disinfectant composition and method for disinfecting and/or sterilising a dental unit” ([…].p.A., priority 2001, published 2003).

System: bacteria and spores on a surface / water line of a dental unit

## O=CCCCC=O [glutaraldehyde]
glutaraldehyde
  contact time to reach the sporicidal level required to achieve sterility: five
Glutaraldehyde left in contact with a surface before flushing out
  contact time for high-level disinfection: twenty to thirty
Glutaraldehyde left in contact with the surface before flushing out
  contact time to disinfect a surface: approximately five
